Where two headings read alike, the source gives them in different places.
Assays:
[1] = tested on: Key Broadleaf Weed and Crop Species; assay: Post-emergent Test II herbicidal activity (Table 15); assay type: in vivo; conditions: post-emergence, 336 h, 14 d; for pest or weed control at 35 g/ha: 35 g ai/ha; for pest or weed control at 70 g/ha: 70 g ai/ha; for pest or weed control at 140 g/ha: 140 g ai/ha; for pest or weed control at 280 g/ha: 280 g ai/ha
How it was run: (§1)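 Plants at first-second true leaf stage, grown 7-21 d in greenhouse (~15 h photoperiod, 23-29 °C day), were track-sprayed at 187 L/ha with compound in acetone/DMSO/water/isopropanol/crop oil/Triton X-155 at a high rate plus 1/2× to 1/16× dilutions. Injury scored visually after 14 d versus untreated plants, 0 (none) to 100% (complete kill).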

[2] = tested on: Key Grass and Sedge Weeds as well as Grass Crops; assay: Post-emergent Test II herbicidal activity (Table 16); assay type: in vivo; conditions: post-emergence, 336 h, 14 days after application; for pest or weed control at 35 g/ha: 35 g ai/ha; for pest or weed control at 70 g/ha: 70 g ai/ha; for pest or weed control at 140 g/ha: 140 g ai/ha; for pest or weed control at 280 g/ha: 280 g ai/ha
How it was run: as §1

[3] = Abutilon theophrasti, velvetleaf (Abutilon theophrasti), read-out: Visual Growth Reduction (%) 14 Days After Application, ABUTH
[4] = Amaranthus retroflexus, redroot pigweed (Amaranthus retroflexus), read-out: Visual Growth Reduction (%) 14 Days After Application, AMARE
[5] = Brassica napus, oilseed rape, canola (Brassica napus), read-out: Visual Growth Reduction (%) 14 Days After Application, BRSNN
[6] = Chenopodium album, lambsquarters (Chenopodium album), read-out: Visual Growth Reduction (%) 14 Days After Application, CHEAL
[7] = Euphorbia heterophylla, wild poinsettia (Euphorbia heterophylla), read-out: Visual Growth Reduction (%) 14 Days After Application, EPHHL
[8] = Helianthus annuus, sunflower (Helianthus annuus), read-out: Visual Growth Reduction (%) 14 Days After Application, HELAN
[9] = Cyperus esculentus, yellow nutsedge (Cyperus esculentus), read-out: Visual Growth Reduction (%) 14 Days After Application CYPES
[10] = Echinochloa crus-galli, barnyardgrass (Echinochloa crus-galli), read-out: Visual Growth Reduction (%) 14 Days After Application ECHCG
[11] = Oryza sativa, rice (Oryza sativa), read-out: Visual Growth Reduction (%) 14 Days After Application ORYSA
[12] = Setaria faberi, giant foxtail (Setaria faberi), read-out: Visual Growth Reduction (%) 14 Days After Application SETFA
[13] = Triticum aestivum, wheat, spring (Triticum aestivum), read-out: Visual Growth Reduction (%) 14 Days After Application TRZAS
[14] = Zea mays, maize, corn (Zea mays), read-out: Visual Growth Reduction (%) 14 Days After Application ZEAMX

COC(=O)c1nc(-c2ccc3ccsc3c2)cc(N)c1Cl [Compound 3.15]
pest or weed control at 35 g/ha [1, 3]: 85 to 94% | pest or weed control at 70 g/ha [1, 3]: 95 to 100% | pest or weed control at 140 g/ha [1, 3]: 95 to 100% | pest or weed control at 35 g/ha [1, 4]: 95 to 100% | pest or weed control at 70 g/ha [1, 4]: 95 to 100% | pest or weed control at 140 g/ha [1, 4]: 95 to 100% | pest or weed control at 35 g/ha [1, 5]: 30 to 44% | pest or weed control at 70 g/ha [1, 5]: 45 to 59% | pest or weed control at 140 g/ha [1, 5]: 45 to 59% | pest or weed control at 35 g/ha [1, 6]: 85 to 94% | pest or weed control at 70 g/ha [1, 6]: 85 to 94% | pest or weed control at 140 g/ha [1, 6]: 95 to 100% | pest or weed control at 35 g/ha [1, 7]: 75 to 84% | pest or weed control at 70 g/ha [1, 7]: 75 to 84% | pest or weed control at 140 g/ha [1, 7]: 85 to 94% | pest or weed control at 35 g/ha [1, 8]: 60 to 74% | pest or weed control at 70 g/ha [1, 8]: 60 to 74% | pest or weed control at 140 g/ha [1, 8]: 85 to 94% | pest or weed control at 35 g/ha [2, 9]: 0 to 29% | pest or weed control at 70 g/ha [2, 9]: 0 to 29% | pest or weed control at 140 g/ha [2, 9]: 0 to 29% | pest or weed control at 35 g/ha [2, 10]: 75 to 84% | pest or weed control at 70 g/ha [2, 10]: 75 to 84% | pest or weed control at 140 g/ha [2, 10]: 95 to 100% | pest or weed control at 35 g/ha [2, 11]: 0 to 29% | pest or weed control at 70 g/ha [2, 11]: 0 to 29% | pest or weed control at 140 g/ha [2, 11]: 0 to 29% | pest or weed control at 35 g/ha [2, 12]: 0 to 29% | pest or weed control at 70 g/ha [2, 12]: 0 to 29% | pest or weed control at 140 g/ha [2, 12]: 0 to 29% | pest or weed control at 35 g/ha [2, 13]: 0 to 29% | pest or weed control at 70 g/ha [2, 13]: 0 to 29% | pest or weed control at 140 g/ha [2, 13]: 0 to 29% | pest or weed control at 35 g/ha [2, 14]: 60 to 74% | pest or weed control at 70 g/ha [2, 14]: 60 to 74% | pest or weed control at 140 g/ha [2, 14]: 60 to 74%

COC(=O)c1nc(-c2cccc3ccsc23)cc(N)c1Cl [Compound 3.27]
pest or weed control at 35 g/ha [1, 3]: 0 to 29% | pest or weed control at 70 g/ha [1, 3]: 0 to 29% | pest or weed control at 140 g/ha [1, 3]: 45 to 59% | pest or weed control at 280 g/ha [1, 3]: 75 to 84% | pest or weed control at 35 g/ha [1, 4]: 85 to 94% | pest or weed control at 70 g/ha [1, 4]: 95 to 100% | pest or weed control at 140 g/ha [1, 4]: 95 to 100% | pest or weed control at 280 g/ha [1, 4]: 95 to 100% | pest or weed control at 35 g/ha [1, 5]: 45 to 59% | pest or weed control at 70 g/ha [1, 5]: 60 to 74% | pest or weed control at 140 g/ha [1, 5]: 60 to 74% | pest or weed control at 280 g/ha [1, 5]: 85 to 94% | pest or weed control at 35 g/ha [1, 6]: 75 to 84% | pest or weed control at 70 g/ha [1, 6]: 85 to 94% | pest or weed control at 140 g/ha [1, 6]: 95 to 100% | pest or weed control at 280 g/ha [1, 6]: 95 to 100% | pest or weed control at 35 g/ha [1, 7]: 0 to 29% | pest or weed control at 70 g/ha [1, 7]: 0 to 29% | pest or weed control at 140 g/ha [1, 7]: 0 to 29% | pest or weed control at 280 g/ha [1, 7]: 0 to 29% | pest or weed control at 35 g/ha [1, 8]: 45 to 59% | pest or weed control at 70 g/ha [1, 8]: 60 to 74% | pest or weed control at 140 g/ha [1, 8]: 75 to 84% | pest or weed control at 280 g/ha [1, 8]: 85 to 94% | pest or weed control at 35 g/ha [2, 9]: 0 to 29% | pest or weed control at 70 g/ha [2, 9]: 0 to 29% | pest or weed control at 140 g/ha [2, 9]: 0 to 29% | pest or weed control at 280 g/ha [2, 9]: 0 to 29% | pest or weed control at 35 g/ha [2, 10]: 0 to 29% | pest or weed control at 70 g/ha [2, 10]: 0 to 29% | pest or weed control at 140 g/ha [2, 10]: 0 to 29% | pest or weed control at 280 g/ha [2, 10]: 0 to 29% | pest or weed control at 35 g/ha [2, 11]: 0 to 29% | pest or weed control at 70 g/ha [2, 11]: 0 to 29% | pest or weed control at 140 g/ha [2, 11]: 0 to 29% | pest or weed control at 280 g/ha [2, 11]: 0 to 29% | pest or weed control at 35 g/ha [2, 12]: 0 to 29% | pest or weed control at 70 g/ha [2, 12]: 0 to 29% | pest or weed control at 140 g/ha [2, 12]: 0 to 29% | pest or weed control at 280 g/ha [2, 12]: 0 to 29% | pest or weed control at 35 g/ha [2, 13]: 0 to 29% | pest or weed control at 70 g/ha [2, 13]: 0 to 29% | pest or weed control at 140 g/ha [2, 13]: 0 to 29% | pest or weed control at 280 g/ha [2, 13]: 0 to 29% | pest or weed control at 35 g/ha [2, 14]: 0 to 29% | pest or weed control at 70 g/ha [2, 14]: 0 to 29% | pest or weed control at 140 g/ha [2, 14]: 0 to 29% | pest or weed control at 280 g/ha [2, 14]: 0 to 29%

Reference: patent US20170050957A1, “4-AMINO-6-(HETEROCYCLIC)PICOLINATES AND 6-AMINO-2-(HETEROCYCLIC)PYRIMIDINE-4-CARBOXYLATES AND THEIR USE AS HERBICIDES” (Dow AgroSciences LLC, priority 2013, published 2017)
